Data as given in US8563614B2, “Use of treprostinil to treat neuropathic diabetic foot ulcers” (United Therapeutics Corporation, priority 2004, dated 2013).

Experiments:
[1] = system: patients with PAD, diabetes and inoperable ischemic foot ulcers; assay: open-label study of safety and efficacy in patients with PAD, diabetes and inoperable ischemic foot ulcers; format: in vivo
Protocol: The purpose of this open-label study is to evaluate the safety and efficacy of treprostinil sodium, a stable prostacyclin analogue, in ten patients with PAD, diabetes and inoperable ischemic foot ulcers.
Treprostinil sodium was administered as a continuous subcutaneous infusion beginning at 2.5 ng/Kg/Min and titrated to highest tolerated dose for 12 weeks. Patients were monitored for adverse events, wound healing, skin perfusion pressure and ischemic rest pain.

[2] = system: diabetics with non-healing wounds in critically ischemic lower extremities; assay: case-controlled trial in diabetic patients with recalcitrant lower extremity wounds: peri-wound TcPO2 and laser Doppler; format: in vivo, human
Protocol: A case-controlled trial examining the effects of treprostinil sodium (Remodulin®), by continuous subcutaneous infusion, was performed in diabetic patients with recalcitrant lower extremity wounds. The known vasodilator and platelet-aggregation inhibitor properties of treprostinil sodium warranted its evaluation as an adjuvant to wound healing in ischemic extremities. The primary endpoints were wound healing and limb salvage. Amongst the secondary endpoints were resting peri-wound transcutaneous oximetry (TcPO2) and laser Doppler analysis (LD) and the response of TcPO2 and LD to an oxygen challenge at ambient or elevated pressure. If treprostinil sodium reduces inflow resistance distal to the pre-capillary sphincter, the ΔpO2 between the hypoxic wound center and the inflow blood should increase both in magnitude and in the slope of that difference. This would be the physiologic basis for the augmentation of the hypoxic signal.
The seven enrolled patients were diabetics with non-healing wounds present (>3 months) in critically ischemic lower extremities (Fontaine Stage III-IV or Rutherford Stage 4, 5 or 6). The treprostinil sodium (Remodulin®) was given by continuous subcutaneous infusion for the study period of 6 weeks. Candidacy for hyperbaric oxygen treatment was an exclusion criterion (patient refusal, logistical constraints or a recently completed HBO2 course). […]

[3] = system: diabetic neuropathy patients having at least one ulcer present on a foot; assay: administration to humans with diabetic neuropathy suffering from foot ulcers; format: in vivo; conditions: continuous subcutaneous infusion, 2.5 ng/kg/min raised weekly to target dose, 12 weeks
Protocol: Diabetic neuropathy patients having at least one ulcer (i.e., small sore or area of tissue gangrene) present on a foot are dosed with increasing amounts of Treprostinil over 12 weeks. The medication is delivered by a small pump that is connected to a catheter placed under the skin. In this manner, increasing dosages of Treprostinil are administered to patients by chronic continuous subcutaneous infusion.
Specifically, a 1.0 mg/mL formulation of Treprostinil sodium (REMODULIN®) is administered subcutaneously using a standard micro-infusion, positive-pressure infusion pump designed for subcutaneous drug delivery (Mini-Med). Patients receive an initial dose of 2.5 ng/kg/min of study drug. If, in a given patient, a dose of 2.5 ng/kg/min is not tolerated (e.g., persistent headache, nausea, emesis, restlessness, anxiety or severe pain at infusion site that cannot be adequately managed by medication or topical treatment), the dose is reduced to 1.25 ng/kg/min. Patients are maintained at 2.5 ng/kg/min (or 1.25 ng/kg/min if 2.5 ng/kg/min is not tolerated) during Week 1. After that, the dose is raised by 2.50 ng/kg/min each week until not tolerated or once a target dose is reached.
Dosing is increased weekly unless not tolerated by the patient. […] One example of a target dose is 15 ng/kg/min. The minimum dose is usually not less than 0.625 ng/kg/min. […]

[4] = system: human pulmonary arterial smooth muscle cells; conditions: Clapp et al. 2002; cited from earlier work
[5] = system: human alveolar macrophages; conditions: Raychaudhuri et al. 2002; cited from earlier work
[6] = system: patients with class III or class IV heart failure; conditions: Patterson et al. 1995; cited from earlier work
[7] = of seven patients who completed the trial to-date, 12 weeks

Compound | effect on ischemic rest pain, skin perfusion, and wound healing ([1]; conclusion of the study) | increase in LD signals (thermal stimulation response) ([2]; all patients with exception of one, on drug against before infusion) | patients who demonstrated healing in wounds ([2]; seven enrolled patients, continuous subcutaneous infusion for 6 weeks, wounds with mean healing arrest of 10.5 months) | serious adverse events attributed to treprostinil ([1]; continuous subcutaneous infusion from 2.5 ng/Kg/Min titrated to highest tolerated dose, 12 weeks, seven patients completed) | drug related side effect reported ([1]; continuous subcutaneous infusion, 12 weeks, seven patients completed) | patients who experienced complete healing [1, 7] | patients who experienced complete resolution of rest pain [1, 7] | patients who experienced partial healing [1, 7] | foot ulcers present before treatment [3] | new foot ulcers associated with diabetic neuropathy [3] | proliferation of human pulmonary arterial smooth muscle cells [4] | inflammatory cytokine (tumor necrosis factor-α, interleukin-1β, interleukin-6, GM-CSF) secretion and gene expression [5] | vasodilator effects [6]
CCCCC[C@H](O)CC[C@@H]1[C@H]2Cc3cccc(OCC(=O)O)c3C[C@H]2C[C@H]1O [Treprostinil sodium] | positive effect | 236% | All patients but one | – | – | – | – | – | – | – | – | – | –
CCCCC[C@H](O)CC[C@@H]1[C@H]2Cc3cccc(OCC(=O)O)c3C[C@H]2C[C@H]1O [Treprostinil, 9-deoxy-2′,9-α-methano-3-oxa-4,5,6-trinor-3,7-(1′,3′-interphenylene)-13,14-dihydro-prostaglandin F1] | – | – | – | No serious adverse events | mild to moderate infusion site pain | Two | Five | Two | reduction in the number, size and severity | fewer new foot ulcers | inhibits proliferation | inhibits | vasodilator effects
